Assay results as given in ChEMBL document CHEMBL1201862, “PubChem BioAssay data set” (2004).
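These data come from cells grown in 96-well plates and exposed to compound for 48 hours at five concentrations. The concentration for 50% growth inhibition is given as GI50.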 Calls of active or inactive are those of the source. Cut-off read from the data, not from the text of the source: active = GI50 up to about 1.1 µM and inactive = higher.

Columns and labels:
Assay in all cases: inhibition of tumour cell growth, NCI panel, 48 h
[1] = system: NCI/ADR-RES
[2] = system: A549
[3] = system: SK-MEL-2
[4] = system: U-251
[5] = system: BT-549
[6] = system: SK-OV-3
[7] = system: RPMI-8226
[8] = system: OVCAR-8
[9] = system: SF-295
[10] = system: IGROV-1
[11] = system: PC-3
[12] = system: EKVX
[13] = system: Hs-578T
[14] = system: UACC-257
[15] = system: UACC-62
[16] = system: MDA-N
[17] = system: OVCAR-4
[18] = system: MOLT-4
[19] = system: SR
[20] = system: MCF7

Measured: GI50

O=C(OC(/C=C/c1ccccc1)P1(=O)N(Cc2ccccc2)[C@@H]2CCCC[C@H]2N1Cc1ccccc1)c1ccccc1 (stereo not given in full)
inactive: [1] 2.74 µM | [2] 3.94 µM | [3] 2.25 µM | [4] 3.79 µM | [5] 4.26 µM | [6] 5.06 µM | [7] 2.21 µM | [8] 3.29 µM | [9] 4.09 µM | [10] 2.9 µM | [11] 3.16 µM | [12] 4.56 µM | [13] 6.67 µM | [14] 3.07 µM | [15] 5.3 µM | [16] 3.8 µM | [17] 4.22 µM | [18] 2.15 µM | [19] 2.81 µM | [20] 3.52 µM

Cc1ccc(S(=O)(=O)N/N=C2\CCC3(O)CC2(C)CCC2C3CC2(C)C)cc1 (stereo not given)
inactive: [1] 33.7 µM | [2] 33.4 µM | [3] 18.7 µM | [4] 42.7 µM | [5] 65.3 µM | [6] 37 µM | [7] > 100 µM | [8] 43.8 µM | [9] 33 µM | [10] 45.1 µM | [11] 22 µM | [12] 40.1 µM | [13] 20 µM | [14] 37.1 µM | [15] 36.6 µM | [16] 38.5 µM | [17] 28.4 µM | [18] 85.9 µM | [19] > 100 µM | [20] 39.6 µM

CCCCc1ccc(Nc2nc(Cl)c3c(ncn3C3CC(Oc4ccc(C)cc4)C(COc4ccc(C)cc4)O3)n2)cc1 (stereo not given)
inactive: [1] > 100 µM | [2] > 100 µM | [3] > 100 µM | [4] > 100 µM | [5] > 100 µM | [6] > 100 µM | [7] > 100 µM | [8] > 100 µM | [9] > 100 µM | [10] > 100 µM | [11] > 100 µM | [12] > 100 µM | [13] 42.5 µM | [14] > 100 µM | [15] > 100 µM | [16] > 100 µM | [17] > 100 µM | [18] 33.9 µM | [19] > 100 µM | [20] 39.3 µM

C#CCn1c(=O)ccn(/C(=C\C(=O)OCC)C(=O)OCC)c1=O
inactive: [1] 7.64 µM | [2] 22.8 µM | [3] 16.4 µM | [4] 14.3 µM | [5] 12.4 µM | [6] 33 µM | [7] 2.73 µM | [8] 2.31 µM | [9] 22.9 µM | [10] 9.08 µM | [11] 15 µM | [12] 6.28 µM | [13] 27.7 µM | [14] 15.3 µM | [15] 14.2 µM | [16] 15.8 µM | [17] 2.85 µM | [18] 2.56 µM | [19] 5.02 µM | [20] 2.87 µM

CCOC(=O)/C(C#N)=C/c1ccc2c(c1)CC1(C2)Cc2cc(CC)c(C(C)O)cc2C1 (stereo not given)
inactive: [1] 8.77 µM | [2] 44.1 µM | [3] 7.21 µM | [4] 6.35 µM | [5] 10.8 µM | [6] 15.4 µM | [7] 6.84 µM | [8] 15 µM | [9] 15.7 µM | [10] 23 µM | [11] 10.2 µM | [12] 57.5 µM | [13] 10 µM | [14] 15.8 µM | [15] 7.83 µM | [16] 2.21 µM | [17] 9.59 µM | [18] 4.59 µM | [19] 5.05 µM | [20] 5.18 µM
